Strand notation (5' to 3'): a small letter for the sugar, then the base; units joined by * are phosphorothioate-linked, units joined directly phosphodiester-linked; [ ] holds rarer units or linkages, { } end groups; capitals alone tell only the bases. e = 2'-O-(2-methoxyethyl) (MOE); [5mC] = 5-methylcytosine; d = 2'-deoxy (DNA)

The series has as its system GCGR mRNA. The experiment in a line: GCGR mRNA levels in liver and estimated ED50, C57/BL6 mice, single i.p. dose of MOE and methyleneoxy BNA gapmers (Tables 44, 45). In kind it is in vivo, mouse. To be noted: liver. The protocol:
Eight-week old male C57/BL6 mice (Jackson Laboratory, Bar Harbor, Me.) were administered a single dose of GCGR antisense compound by intraperitonel (i.p.) injection at a concentration of 10, 3.2, 1, and 0.32 μmol·kg. Each dose group consisted of four animals. Shown in Table 43 are the sequences, motifs and conjugates of the GCGR antisense compounds used in this study. Bolded residues indicate 2′-O-methoxyethyl (2′-MOE) modifications and the italicized residues indicate methyleneoxy (4′-CH2—O-2′) BNA modifications. All antisense compounds comprise phosphorothioate internucleoside linkages throughout and each cytosine is replaced with 5-methylcytosine. GCGR antisense compounds target published GCGR nucleic acids, including Genbank Accession No. BC031885.1 (SEQ ID NO: 7).
To determine whether the phenotypic changes shown above correlated with a decrease in GCGR mRNA, treated animals were evaluated for levels of target mRNA in liver by RT, real time PCR according to methods described herein. Table 44 show results from direct comparisons of the antisense compounds targeting GCGR nucleic acid for their effect on target expression. Results are expressed as percent of saline control.

As to “148364 (antisense eT*eG*e[5mC]*eA*e[5mC]*dT*dT*dT*dG*dT*dG*dG*dT*dA*d[5mC]*e[5mC]*eA*eA*eG*eG) [compound 148364]”, the “GCGR mRNA levels” value is reported as 105% of saline control (0.32 μmol/kg single i.p.), 106% of saline control (1 μmol/kg single i.p.), 73% of saline control (3.2 μmol/kg single i.p.) and 38% of saline control (10 μmol/kg single i.p.).

(Values after patent publication US8372967B2, “Compounds and methods for modulating expression of GCCR” (Isis Pharmaceuticals, Inc., priority 2006, dated 2013).)
